Measurements as given in patent US6203822A, “Gallium-containing compounds for the treatment of infections caused by intracellular pathogens and pathogens causing chronic pulmonary infection” (priority 1996, dated 2001).

System: M. tuberculosis in human alveolar macrophages
Assay: M. tuberculosis in human alveolar macrophages, gallium nitrate with or without anti-tuberculous antibiotics
Assay type: cell-based
Experimental: The gallium-containing compounds can also be tested for their ability to inhibit intracellular pathogens in tissue culture assays. In general, in these assays, the macrophages are placed in culture and incubated with the intracellular pathogen at an approximate cell to pathogen ratio of preferably at least 1:1 to about 1:5 cells:pathogen. Exemplary culture conditions are provided in the assays detailed in the Examples. For assays assessing M. tuberculosis infection, freshly adherent monocytes, 12 day-old adherent MDMs, or freshly adherent alveolar macrophages are incubated with M. tuberculosis, MAI or other intracellular bacteria at a ratio of about 1:1 to about 1:5 (phagocyte:bacterium). For M. tuberculosis or MAI, the bacteria are incubated with the phagocyte for 2 hr at 37° C. in RPMI/HEPES media with 2.5% serum or human serum albumin (serum-free). The cells are washed to remove non-adherent bacteria and monolayers are replated with RPMI containing 1% autologous serum (to maintain phagocyte viability but not to sustain extracellular growth of bacteria). Gallium-containing compounds, such as gallium nitrate, with, or without, other agents such as antibiotics, cytokines etc., are added about 24 hr. later and mycobacterial growth in cell lysates is then assessed over the next several days either by the radiometric BACTEC system or by colony-forming units on agarose plates. In each experiment, growth is assessed relative to control monolayers where no drug has been added.
Human alveolar macrophages were purified from healthy non-smoking adult volunteers and placed in monolayer culture. M. tuberculosis infected cells were treated with gallium nitrate as described in Example 2. Antituberculous antibiotics were added to wells alone or with gallium nitrate at 500 μM 24 h after M. tuberculosis infection. Antituberculous antibiotics tested included streptomycin (2.016 μg/ml), isoniazid (0.1 μg/ml), rifampin (2.0 μg/ml), and ethambutol (2.52 μg/ml) and the combination of antibiotics was denoted as SIRE. Antibiotics were obtained in lyophilized form from BACTEC. The antibiotics were reconstituted in sterile water per package instructions. With reference to FIG. 3, SIRE refers to combinations of streptomycin, isoniazid, rifampin and ethambutol while IR refers to combinations of Isoniazid and rifampin.
Infected macrophages were cultured for 24 h, 48 h, or 120 h. Growth index readings of combined supernatants and cell lysates were measured in the BACTEC 460 TB system. […] Since these antibiotics have a number of unpleasant side effects that are reduced at reduced concentrations of the drugs, combined therapies that permit these antibiotics to be administered at lower doses when combined with gallium nitrate is significant and may help to promote better drug compliance in patients infected with M. tuberculosis.

O=[N+]([O-])[O-].O=[N+]([O-])[O-].O=[N+]([O-])[O-].[Ga+3] [gallium nitrate]
augmentation of growth inhibition by antibiotics (gallium nitrate 500 μM plus suboptimal antibiotics (1/10 the standard concentrations), human alveolar macrophages): augments the ability of suboptimal concentrations of antibiotics | enhancement of antibiotic growth inhibition (suboptimal streptomycin, isoniazid, rifampin and ethambutol or suboptimal Isoniazid and rifampin): clear-cut enhancement in inhibition of M. tuberculosis growth
